Test results taken from patent US8765695B2, “Use of ginsenoside RG1, its metabolites ginsenoside RH1 and/or PPT” (priority 2007, dated 2014).
Marks after values point to notes of the source that are not given here.

Tests used:
male mice = experiment: Test of sexual ethology: bestriding time and mating frequency of male mice with estral female mice; format: in vivo, Kunming mice
Method: Kunming male mice (age 10 weeks, weight body 32-36 g), Kunming female mice (age 10 weeks, weight body 30-34 g), as purchased from Laboratory Animal Center of Chinese Academy of Medical Sciences (with the number of certificate SCXK (Jing) 2005-0004), were placed in a clean grade animal house alternately in light and in darkness (12 h:12 h), while taking water and food freely. The test started after the mice had adapted to the environment in the animal house for 5 days. During the period of adapting to the environment, male mice and female mice were isolated from each other.
In order to correctly reflect the change of male mice in sexual function, we prepared estral female mice by ectomizing their ovaries and inducing them by application of external hormone. After anesthetized with chloral hydrate, female mice were subjected to the steps of ectomizing bilateral ovaries by dorsal approach, ligating uterine tube residue end, and suturing skin, followed by recuperating for one week. The induction by application of hormone was conducted by reference to the literature (Masayoshi Nomura, et al, Physiology & Behavior 91 (2007) 223-228), comprising the steps of subcutaneously injecting estradiol benzoate (30 μg per mouse, is) at 48 h prior to use, and subcutaneously injecting progesterone (500 μg per mouse, is) at 4 h prior to use, to thereby obtain estral female mice.
Estral female mice were put in a ratio of 2:1 to male mice inside a mating box in which male mice were placed. They were trained for consecutive 5 days, 12 min each day. When the mating reaction of male mice became stable, the mice were grouped with the consideration that the bestriding time in each group of mice was substantially the same, while discarding the mice that had relatively weak reaction and no reaction.
In darkness, ethological test was carried out in the rearing cage of male mice. Estral female mice and male mice were kept in a ratio of 2:1 inside the same box for 12 min, during which period the bestriding time and mating frequency of the male mice were observed.
All of the values were expressed by using mean value and standard error (M±SEM), the analytic method used was one-way analysis of variance (ANOVA), and the statistic results were expressed by double star method, i.e., *<0.05, **<0.01.

testosterone in serum = experiment: Content of testosterone in serum of male mice by radioimmune assay after 20 days of oral administration; format: in vivo
Method: After oral administration of ginsenoside Rg1 for 20 days, the content of testosterone in serum of male mice was tested by radioimmune assay.

corpus cavernosum = experiment: NO release and cGMP content in corpus cavernosum of Newland white rabbit; format: in vivo
Method: 1.2.1 Influence of Ginsenoside Rg1 on No Release and cGMP Content in Corpus Cavernosum of Newland White Rabbit, as Shown in Table 4
Ginsenoside Rg1 (10 mg/kg) could markedly increase cGMP content in corpus cavernosum as compared with the control group. *P<0.05 vs the control group.

PDE5 = PDE5 (Homo sapiens, UniProt O76074); experiment: Inhibition effect on PDE5 (cGMP degradation, radioimmune autograph technique); format: biochemical
healthy men aged 30-50 = experiment: Improving sexual function of men, study in volunteers; format: in vivo, human; settings: 100-200 mg/d
From the text: The effect of ginsenoside Rg1 on improving sexual function of men had been studied in a few of volunteers (healthy men aged 30-50).

[1] = tested on: sperms in tail of epididymis; experiment: Gossypol aspermatogenesis model: quality of sperms from tail of epididymis by CASA; format: in vivo,  male mice; settings: 14th day
NO in testis tissue = experiment: NO content in testis tissue of mice, gossypol model (NO kit); format: in vivo
From the text: There was no difference between low-dose group and high-dose group. […] The values were expressed as mean value±SD. **P<0.01 vs. model group, n=10.

T, FSH and LH in serum = experiment: Hormones (T, FSH, LH) content in serum of mice, gossypol model, radioimmune assay; format: in vivo
Method: The test was conducted by radioimmune assay, with the use of a kit as purchased from China North Institute of Biological Technology.

sperms of senile mice = experiment: Quality of sperms in senile mice by CASA; format: in vivo, Kunming mice; settings: senile mice aged 12 months, 5 mg/kg oral once every day, two weeks
Method: In the test, Kunming mice aged 12 months were used. Ginsenoside Rg1 was orally administered at a dose of 5 mg/kg, once every day, for two weeks.
However, the two groups had no difference in terms of the percentage of motility sperms and the percentage of A+B grade. […] The values were expressed as mean value±SD. **P<0.01 vs. the group of senile mice, n=4.

[2] = tested on: sperms of cold stress mice; experiment: Quality of sperms in mice in cold stress model by CASA; format: in vivo, Kunming mice; settings: 14 days
Method: In the test, Kunming mice were used to establish a stress model. The mice were placed in an environment of 4° C. for 8 hours every day, each being kept in a single cage, with fasting and without water, for 14 days, to thereby establish a cold stress model. Ginsenoside Rg1 was administered at two different doses, i.e., 5 mg/kg and 10 mg/kg. Every day, the mice orally took the drug 1 hour before exposure in the cold environment.

For `CC(C)=CCC[C@](C)(O[C@@H]1O[C@H](CO)[C@@H](O)[C@H](O)[C@H]1O)[C@H]1CC[C@]2(C)[C@@H]1[C@H](O)C[C@@H]1[C@@]3(C)CC[C@H](O)C(C)(C)[C@@H]3[C@@H](O[C@@H]3O[C@H](CO)[C@@H](O)[C@H](O)[C@H]3O)C[C@]12C` [Rg1, ginsenoside Rg1], the “bestriding time of mice” value (male mice; 5 mg/kg, 1st day) was 3.1 ± 4.3 min, the “mating frequency of mice” value (male mice; 5 mg/kg, 1st day, 12 min observation) was 15.4 ± 6.4 and the “bestriding time of mice” value (male mice; 5 mg/kg, 4th day) was 2.9 ± 3.4 min. The “mating frequency of mice” value (male mice; 5 mg/kg, 4th day) was 18.7 ± 4.2, the “bestriding time of mice” value (male mice; 5 mg/kg, 8th day) was 3.9 ± 3.1 min and the “mating frequency of mice” value (male mice; 5 mg/kg, 8th day) was 25.6 ± 5.2. For the same compound, the “bestriding time of mice” value (male mice; 5 mg/kg, 12th day) was 7.6 ± 4.1 min, the “mating frequency of mice” value (male mice; 5 mg/kg, 12th day) was 32.8 ± 6.6 and the “bestriding time of mice” value (male mice; 5 mg/kg, 14th day) was 6.9 ± 3.5 min. For the same compound, the “mating frequency of mice” value (male mice; 5 mg/kg, 14th day) was 29.3 ± 7.0, the “bestriding time of mice” value (male mice; 5 mg/kg, 16th day) was 8.6 ± 2.8 min and the “mating frequency of mice” value (male mice; 5 mg/kg, 16th day) was 42.1 ± 10.1. For the same compound, the “bestriding time of mice” value (male mice; 5 mg/kg, 18th day) was 9.4 ± 3.7* min, the “mating frequency of mice” value (male mice; 5 mg/kg, 18th day) was 43.7 ± 8.7* and the “bestriding time of mice” value (male mice; 5 mg/kg, 20th day) was 9.5 ± 3.4* min. The “mating frequency of mice” value (male mice; 5 mg/kg, 20th day) was 43.3 ± 7.8*, the “bestriding time of mice” value (male mice; 10 mg/kg, 1st day) was 3.3 ± 2.3 min and the “mating frequency of mice” value (male mice; 10 mg/kg, 1st day, 12 min observation) was 13.8 ± 3.4. The “bestriding time of mice” value (male mice; 10 mg/kg, 4th day) was 3.5 ± 3.1 min, the “mating frequency of mice” value (male mice; 10 mg/kg, 4th day) was 20.1 ± 4.8 and the “bestriding time of mice” value (male mice; 10 mg/kg, 8th day) was 4.2 ± 3.6 min. For the same compound, the “mating frequency of mice” value (male mice; 10 mg/kg, 8th day) was 28.3 ± 5.6, the “bestriding time of mice” value (male mice; 10 mg/kg, 12th day) was 8.6 ± 4.3 min and the “mating frequency of mice” value (male mice; 10 mg/kg, 12th day) was 25.3 ± 7.1. The “bestriding time of mice” value (male mice; 10 mg/kg, 14th day) was 7.9 ± 3.7 min, the “mating frequency of mice” value (male mice; 10 mg/kg, 14th day) was 33.3 ± 6.6 and the “bestriding time of mice” value (male mice; 10 mg/kg, 16th day) was 9.2 ± 3.6 min. For the same compound, the “mating frequency of mice” value (male mice; 10 mg/kg, 16th day) was 37.9 ± 12.7, the “bestriding time of mice” value (male mice; 10 mg/kg, 18th day) was 9.3 ± 3.6* min and the “mating frequency of mice” value (male mice; 10 mg/kg, 18th day) was 45.1 ± 10.8*. The “bestriding time of mice” value (male mice; 10 mg/kg, 20th day) was 9.8 ± 3.8* min, the “mating frequency of mice” value (male mice; 10 mg/kg, 20th day) was 44.2 ± 9.4* and the “content of testosterone in serum of mice” value (testosterone in serum; 2.5 mg/kg oral) was 5.11 pmol/mL. The “content of testosterone in serum of mice” value (testosterone in serum; 5.0 mg/kg oral) was 5.18 pmol/mL, the “content of testosterone in serum of mice” value (testosterone in serum; 10.0 mg/kg oral) was 7.90* pmol · ml^−1 and the “NO release in corpus cavernosum” value (corpus cavernosum; 2.5 mg/kg) was 27.97 ± 6.90 μmol/g protein. The “cGMP content in corpus cavernosum” value (corpus cavernosum; 2.5 mg/kg) was 87.40 ± 42.86 pmol/g, the “NO release in corpus cavernosum” value (corpus cavernosum; 5.0 mg/kg) was 28.43 ± 6.04* μmol/g protein and the “cGMP content in corpus cavernosum” value (corpus cavernosum; 5.0 mg/kg) was 98.10 ± 48.40 pmol/g. For the same compound, the “NO release in corpus cavernosum” value (corpus cavernosum; 10.0 mg/kg) was 30.35 ± 6.70* μmol/g protein, the “cGMP content in corpus cavernosum” value (corpus cavernosum; 10.0 mg/kg) was 102.73 ± 50.80* pmol/g and the IC50 (PDE5) was 4.34 nM. It also gave an inhibition at 0.0025 µM (PDE5; inhibitor 2.5 nmol/l, read-out: Inhibition rate on PDE5) of 46.7%, an inhibition at 0.005 µM (PDE5; inhibitor 5.0 nmol/l, read-out: Inhibition rate on PDE5) of 40% and an inhibition at 0.01 µM (PDE5; inhibitor 10.0 nmol/l, read-out: Inhibition rate on PDE5) of 63.4%. The inhibition at 0.04 µM (PDE5; inhibitor 40.0 nmol/l, read-out: Inhibition rate on PDE5) was 100%, the inhibition at 0.08 µM (PDE5; inhibitor 80.0 nmol/l, read-out: Inhibition rate on PDE5) was 100% and the “side effects in volunteers” value (healthy men aged 30-50) was “except for dry mouth, no significant side effects occurred”. For the same compound, the Number of sperms ([1]; 5 mg/kg every day + gossypol 50 mg/kg every other day) was 170 ± 36**^# 10^6 · ml−1, the “Motility of sperms (A + B)” value ([1]; 5 mg/kg every day + gossypol) was 28 ± 6% and the “Viability rate of sperms” value ([1]; 5 mg/kg every day + gossypol) was 50 ± 10 %. The Number of sperms ([1]; 10 mg/kg every day + gossypol 50 mg/kg every other day) was 225 ± 36**^## 10^6 · ml−1, the “Motility of sperms (A + B)” value ([1]; 10 mg/kg every day + gossypol) was 45 ± 8 % and the “Viability rate of sperms” value ([1]; 10 mg/kg every day + gossypol) was 61 ± 9 %. For the same compound, the “NO concentration in testis tissue” value (NO in testis tissue; 5 mg/kg) was 16 ± 9 μmol/g protein, the “NO concentration in testis tissue” value (NO in testis tissue; 10 mg/kg) was 10 ± 7** μmol/g protein and the FSH in serum (T, FSH and LH in serum; 5 mg/kg) was 5.7 ± 2.0 ng/mL. For the same compound, the LH in serum (T, FSH and LH in serum; 5 mg/kg) was 2.9 ± 1.2 ng/mL, the T in serum (T, FSH and LH in serum; 5 mg/kg) was 0.8 ± 0.3 ng/mL and the FSH in serum (T, FSH and LH in serum; 10 mg/kg) was 4.3 ± 1.9 ng/mL. The LH in serum (T, FSH and LH in serum; 10 mg/kg) was 2.1 ± 0.8 ng/mL, the T in serum (T, FSH and LH in serum; 10 mg/kg) was 1.0 ± 0.5 ng/mL and the “A + B grade” value (sperms of senile mice) was 18.27 ± 8.37%. The Motility sperms (sperms of senile mice) was 40 ± 6.56%, the Sperm count (sperms of senile mice) was 133.23 ± 15.99** ×10^6 and the “A + B grade” value ([2]; 5 mg/kg oral) was 39.26 ± 8.96 %. The Motility sperm ([2]; 5 mg/kg oral) was 54.47 ± 8.14 %, the Sperm count ([2]; 5 mg/kg oral) was 438.70 ± 94.19 ×10^6 and the “A + B grade” value ([2]; 10 mg/kg oral) was 32.89 ± 13.42%. For the same compound, the Motility sperm ([2]; 10 mg/kg oral) was 44.97 ± 12.07% and the Sperm count ([2]; 10 mg/kg oral) was 377.17 ± 42.93 ×10^6.
